Patent publication US20230160021A1, “METHOD FOR THE DETECTION OF A SEXUALLY TRANSMITTED INFECTIOUS PATHOGEN” (SELFDIAGNOSTICS DEUTSCHLAND GMBH, priority 2016, published 2023)

Key:
LAMP reaction = test: LAMP amplification activity in the presence of lytic agents / lytic peptides; format: biochemical; details: for inhibiting effect on the LAMP amplification efficiency: 5 μM antimicrobial peptide in LAMP reaction
Procedure: Loop-mediated isothermal amplification activity in the presence of different lytic agents. Percentage of amplification activity in the presence of 0.1% polyethylene glycol p-(1,1,3,3-tetramethylbutyl)-phenyl ether, 0.1 mg/ml lysozyme (with or without 0.1% polyethylene glycol p-(1,1,3,3-tetramethylbutyl)-phenyl ether or 1 mM EDTA) or alkaline lysis components.
Loop-mediated isothermal amplification activity in the presence of different lytic peptides. Percentage of amplification activity in the presence of 5 μM antimicrobial peptides.

E. coli = test: Loop-mediated isothermal amplification directly from E. coli cell lysates after pretreatment of urine spiked E. coli; format: cell-based, Escherichia coli
Procedure: Loop-mediated isothermal amplification directly from E. coli cell lysates. Isothermal amplification after pretreatment of urine spiked E. coli with different lysate preparation techniques. Lysozyme was used at 1 mg/ml concentration, polyethylene glycol p-(1,1,3,3-tetramethylbutyl)-phenyl ether at 1% and peptides at 50 μM concentration for the biological sample treatment. All sample pretreatments were performed for 5 min at RT° C. (except for heat treatment that was incubated at 95° C.).
A biological sample containing E. coli bacteria (urine sample in FIG. 6) is treated with 50 μM antimicrobial peptide belonging to but not limited to cecropin group (Cecropin P1 or SB-37 in FIG. 6) for 5 min at RT° C. 5 μl of the urine sample is added directly to the loop-mediated amplification reaction, so that final reaction volume is 50 μl and final components concentration as follows: 0.2 μM F3 primer, 0.2 μM B3 primer, 1.6 μM BIP primer, 1.6 μM FIP primer, 0.8 μM LF primer, 0.8 μM LB primer, 8 mM MgSO4, 1.4 mM dNTP, 0.8M betain, 20 mM Tris-HCl pH 8.8, 10 mM KCl, 10 mM (NH4)2SO4, 0.1% (v/v) Tween 20 and 16 units of Bsm polymerase.

Compound	inhibiting effect on the LAMP amplification efficiency (LAMP reaction)	other results
Cecropin P1 (SWLSKTAKKLENSAKKRISEGIAIAIQGGPR; listed as Ascaris suum)	lowest inhibitory effect	inhibiting effect on the LAMP amplification efficiency (LAMP reaction; listed as P1): only mild inhibition; increase of the target DNA available for the isothermal amplification (E. coli; 50 μM peptide, 5 min at RT, urine spiked E. coli, LAMP (FIG. 6)): 6 times; effect of sample pre-treatment on isothermal amplification efficiency (E. coli; urine sample, peptide pre-treatment (FIG. 6)): enhancing effect
MSI-594	quite severe inhibiting effect	–
CC[C@H](C)[C@H](NC(=O)CN)C(=O)NCC(=O)N[C@@H](C)C(=O)N[C@H](C(=O)N[C@@H](CC(C)C)C(=O)N[C@@H](CCCCN)C(=O)N[C@H](C(=O)N[C@@H](CC(C)C)C(=O)N[C@H](C(=O)N[C@H](C(=O)NCC(=O)N[C@@H](CC(C)C)C(=O)N1CCC[C@H]1C(=O)N[C@@H](C)C(=O)N[C@@H](CC(C)C)C(=O)N[C@H](C(=O)N[C@@H](CO)C(=O)N[C@@H](Cc1c[nH]c2ccccc12)C(=O)N[C@H](C(=O)N[C@@H](CCCCN)C(=O)N[C@@H](CCCNC(=N)N)C(=O)N[C@@H](CCCCN)C(=O)N[C@@H](CCCNC(=N)N)C(=O)N[C@@H](CCC(N)=O)C(=O)N[C@@H](CCC(N)=O)C(N)=O)[C@@H](C)CC)[C@@H](C)CC)[C@@H](C)O)[C@@H](C)O)C(C)C)C(C)C [melittin]	inhibiting effect comparable to alkaline lysis components	–
Bombolitin III	only mild inhibition	–
lysozyme	–	effect on the amplification efficiency (LAMP reaction; lysozyme alone, 0.1 mg/ml in LAMP reaction): very modest effect; isothermal amplification efficiency (LAMP reaction; lysozyme in combination with lysis enhancing agents (polyethylene glycol p-(1,1,3,3-tetramethylbutyl)-phenyl ether or EDTA)): significantly reduced
MSI-78	quite severe inhibiting effect	–
